# In article PMC5080355, “Interaction of the Nitrogen Regulatory Protein GlnB (PII) with Biotin Carboxyl Carrier Protein (BCCP) Controls Acetyl-CoA Levels in the Cyanobacterium Synechocystis sp. PCC 6803” (Frontiers in Microbiology, 2016):
# Columns and labels:
# [1] = biological target: T1, SyGlnB (PII) in complex with SyBCCP (Synechocystis sp. PCC 6803, UniProt Q55247); assay: pull-down of GlnB with His-BCCP on Ni-NTA magnetic beads, SDS-PAGE densitometry, 2-OG titration; type: binding; set-up: gene glnB; GlnB C-terminally Strep-tagged (pASK-IBA3glnBSc); bait His-tagged BCCP (pET15accB), biotinylated with E. coli BirA; both expressed in E. coli and purified; GlnB homotrimer; with Biotin carboxyl carrier protein of acetyl-CoA carboxylase; conditions: read-out: apparent IC50
# [2] = biological target: T2, SyGlnB (PII) in complex with SyBCCP (Synechocystis sp. PCC 6803, UniProt Q55247, S49C); assay: biochemical
# T2 construct: gene glnB
# [3] = biological target: T3, SyGlnB (PII) in complex with SyBCCP (Synechocystis sp. PCC 6803, UniProt Q55247, S49D); assay: biochemical
# T3 construct: gene glnB
# [4] = biological target: T1, SyGlnB (PII) in complex with SyBCCP; assay: biochemical; set-up: gene glnB
# T1 sequence (Q55247 whole entry): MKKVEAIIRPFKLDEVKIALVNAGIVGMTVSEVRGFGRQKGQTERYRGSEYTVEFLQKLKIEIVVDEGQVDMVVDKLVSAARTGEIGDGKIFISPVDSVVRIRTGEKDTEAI
# T1 sequence (Q55120 1-154 partner): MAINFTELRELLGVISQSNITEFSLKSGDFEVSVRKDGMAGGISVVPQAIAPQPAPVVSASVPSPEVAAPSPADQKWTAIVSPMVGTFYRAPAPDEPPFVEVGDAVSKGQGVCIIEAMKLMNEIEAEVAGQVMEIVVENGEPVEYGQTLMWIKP
# T2 sequence (Q55120 entry or part of it, stated change not applied): as the sequence (Q55120 1-154 partner) above
# T2 sequence (Q55247 whole entry S49C): as the sequence (Q55247 whole entry) above, with S49C counted along it
# T3 sequence (Q55247 whole entry S49D): as the sequence (Q55247 whole entry) above, with S49D counted along it
# T3 sequence (Q55120 entry or part of it, stated change not applied, further chain): as the sequence (Q55120 1-154 partner) above
SMILES,IC50 [1],EC50 [2],EC50 [3],EC50 [4]
O=C(O)CCC(=O)C(=O)O [2-OG],41.3 µM,–,–,–
Nc1ncnc2c1ncn2[C@@H]1O[C@H](COP(=O)(O)OP(=O)(O)OP(=O)(O)O)[C@@H](O)[C@H]1O [ATP],–,143 µM,231 µM,68 µM
